Common to all, as to test: MIC, agar dilution test (Denley multipoint inoculator; Iso-sensitest agar)
What all share (type): cell-based

In one experiment the test system is Morganella morganii 932. Conditions: 37° C., about 20 hours, about 10^4 colony-forming particles. As for the experimental part:
(§1) The minimum inhibitory concentrations (MIC) were determined by the series dilution method on Iso-Sensitest agar (Oxoid). For each test substance, a series of agar plates which contained concentrations of the active compound which decreased by a dilution factor of two each time was prepared. The agar plates were inoculated with a multipoint inoculator (Denley). Overnight cultures of the pathogens which had first been diluted so that each inoculation point contained about 10^4 colony-forming particles were used for the inoculation. The inoculated agar plates were incubated at 37° C. and the germ growth was read off after about 20 hours. The MIC value (μg/ml) indicates the lowest active compound concentration at which no germ growth was to be detected with the naked eye.
(§2) The MIC values of some of the compounds according to the invention are shown in comparison with ciprofloxacin in the following table.
(§3) MIC values (mg/l) determined by the agar dilution
(§4) test (Denley multipoint inoculator; Iso-sensitest agar)

The test system of experiment [1] is Staphylococcus aureus FK 422. Conditions: FK422; Staphylococcus aureus FK 422; 37° C., about 20 hours, about 10^4 colony-forming particles; read-out: MIC values. As for the experimental part:
as §1, §2, §3, §4

In experiment [2] the test system is Providencia stuartei 12052. The following applies: 37° C., about 20 hours, about 10^4 colony-forming particles. The procedure:
as §1, §2, §3, §4

Another experiment concerns Proleus mirabilis 8223. Conditions: 37° C., about 20 hours, about 10^4 colony-forming particles. The procedure: as §1, §2, §3, §4
Experiment [3] concerns Enterococcus faecalis 27101. Conditions: Enterococcus faecalis 27101; 37° C., about 20 hours, about 10^4 colony-forming particles; read-out: MIC values. As for the experimental part:
as §1, §2, §3, §4

In the next experiment the test system is Escherichia coli Neumann. The following applies: 37° C., about 20 hours, about 10^4 colony-forming particles. The procedure: as §1, §2, §3, §4
Experiment [4] has as its system Staphylococcus aureus 133. The following applies: Staphylococcus aureus 133; 37° C., about 20 hours, about 10^4 colony-forming particles; read-out: MIC values. As for the experimental part:
as §1, §2, §3, §4

Experiment [5] deals with Staphylococcus aureus 1756. Conditions: Staphylococcus aureus 1756; 37° C., about 20 hours, about 10^4 colony-forming particles; read-out: MIC values. The procedure:
as §1, §2, §3, §4

For experiment [6], the system named is Enterococcus faecalis 9790. The following applies: Enterococcus faecalis 9790; 37° C., about 20 hours, about 10^4 colony-forming particles; read-out: MIC values. As for the experimental part: as §1, §2, §3, §4
Another experiment deals with Proleus vulgaris 1017. The following applies: 37° C., about 20 hours, about 10^4 colony-forming particles. As for the experimental part:
as §1, §2, §3, §4

Values after ≈ are worked out from the molar mass of the structure shown. A value given as a limit tells only on which side of the number the result lay.

In the case of `CO[C@H]1CN(c2c(F)cc3c(=O)c(C(=O)O)cn(C4CC4)c3c2F)C[C@H]1N.Cl` (relative stereo) [Example 3, 7-(cis-3-Amino-4-methoxy-1-pyrrolidinyl)-1-cyclopropyl-6,8-difluoro-4-oxo-3-quinolinecarboxylic acid hydrochloride], the minimum inhibitory concentration (MIC) is 0.03 µg/mL with Morganella morganii 932; 0.06 µg/mL in experiment [1]; 2 µg/mL in experiment [2]; 1 µg/mL with Proleus mirabilis 8223; 0.125 µg/mL in experiment [3]; not above 0.015 µg/mL against Escherichia coli Neumann. The MIC in [4] was 0.03 µg/mL; in [5] it was 0.06 µg/mL; in [6], 0.25 µg/mL; against Proleus vulgaris 1017 it was not above 0.015 µg/mL.
In the case of `CN1CCC2CN(c3c(F)cc4c(=O)c(C(=O)O)cn(C5CC5)c4c3F)CC21` (stereo not shown) [Example 18, 1-cyclopropyl-6,8-difluoro-1,4-dihydro-7-(2-methyl-2,7-diazabicyclo[3.3.0]oct-7-yl)-4-oxo-3-quinolinecarboxylic acid], the MIC amounted to 0.06 µg/mL (≈ 0.154 µM) against Morganella morganii 932; 0.125 µg/mL (≈ 0.321 µM) in experiment [1]; 4 µg/mL (≈ 10.3 µM) in experiment [2]; 1 µg/mL (≈ 2.57 µM) in the experiment on Proleus mirabilis 8223; 0.25 µg/mL (≈ 0.642 µM) in experiment [3]; 0.03 µg/mL (≈ 0.077 µM) in the experiment on Escherichia coli Neumann. The minimal inhibitory concentration (MIC) in [4] is 0.125 µg/mL (≈ 0.321 µM); in experiment [5], 0.125 µg/mL (≈ 0.321 µM); in experiment [6], 0.5 µg/mL (≈ 1.28 µM); in the experiment on Proleus vulgaris 1017, 0.06 µg/mL (≈ 0.154 µM).
Turning to `O=C(O)c1cn(C2CC2)c2cc(N3CC4CCNC4C3)c(F)cc2c1=O` (stereo not shown) [Example 16, 1-cyclopropyl-7-(2,7-diazabicyclo[3.3.0]oct-7-yl)-6-fluoro-1,4-dihydro-4-oxo-3-quinolinecarboxylic acid], the MIC was found to be 0.06 µg/mL (≈ 0.168 µM) with Morganella morganii 932; 0.125 µg/mL (≈ 0.35 µM) in experiment [1]; 32 µg/mL (≈ 89.5 µM) in [2]; 4 µg/mL (≈ 11.2 µM) in the experiment on Proleus mirabilis 8223; 0.5 µg/mL (≈ 1.4 µM) in [3]; 0.06 µg/mL (≈ 0.168 µM) in the experiment with Escherichia coli Neumann. Besides, the MIC in experiment [4] was determined as 0.125 µg/mL (≈ 0.35 µM); in experiment [5], 0.125 µg/mL (≈ 0.35 µM); in experiment [6], 0.5 µg/mL (≈ 1.4 µM); against Proleus vulgaris 1017 it was 0.06 µg/mL (≈ 0.168 µM).
`O=C(O)c1cn(C2CC2)c2c(F)c(N3CC4NCCOC4C3)c(F)cc2c1=O` (stereo not shown) [Example 8, 1-cyclopropyl-6,8-difluoro-1,4-dihydro-7-(2-oxa-5,8-diazabicyclo[4.3.0]non-8-yl)-4-oxo-3-quinolinecarboxylic acid]: the MIC was 0.06 µg/mL (≈ 0.153 µM) in the experiment with Morganella morganii 932; 0.03 µg/mL (≈ 0.0767 µM) in experiment [1]; 4 µg/mL (≈ 10.2 µM) in [2]; 2 µg/mL (≈ 5.11 µM) with Proleus mirabilis 8223; 0.125 µg/mL (≈ 0.319 µM) in experiment [3]; not above 0.015 µg/mL against Escherichia coli Neumann. Also, the MIC in experiment [4] stood at 0.03 µg/mL (≈ 0.0767 µM); in [5], 0.03 µg/mL (≈ 0.0767 µM); in [6], 0.125 µg/mL (≈ 0.319 µM); in the experiment on Proleus vulgaris 1017, 0.06 µg/mL (≈ 0.153 µM).
Regarding `O=C(O)c1cn(C2CC2)c2c(F)c(N3CC4CCCNC4C3)c(F)cc2c1=O` (stereo not shown) [Example 15, 1-cyclopropyl-7-(2,8-diazabicyclo[4.3.0]non-8-yl)-6,8-difluoro-1,4-dihydro-4-oxo-3-quinolinecarboxylic acid], the MIC with Morganella morganii 932 is 0.03 µg/mL (≈ 0.077 µM); in experiment [1], 0.03 µg/mL (≈ 0.077 µM); in [2] it was 1 µg/mL (≈ 2.57 µM); with Proleus mirabilis 8223, 0.5 µg/mL (≈ 1.28 µM); in [3], 0.03 µg/mL (≈ 0.077 µM); in the experiment on Escherichia coli Neumann, not above 0.015 µg/mL. The MIC (in [4]; in experiment [5]; in the experiment with Proleus vulgaris 1017) was 0.03 µg/mL (≈ 0.077 µM) throughout.
On to `CO[C@@H]1CN(c2cc3c(cc2F)c(=O)c(C(=O)O)cn3C2CC2)C[C@H]1N.Cl` (relative stereo) [Example 2, 7-(trans-3-Amino-4-methoxy-1-pyrrolidinyl)-1-cyclopropyl-6-fluoro-4-oxo-3-quinolinecarboxylic acid hydrochloride], for which the MIC against Morganella morganii 932 is 0.03 µg/mL; in experiment [1], 0.125 µg/mL; in experiment [2] it was 4 µg/mL; against Proleus mirabilis 8223 it was 4 µg/mL; in the experiment on Escherichia coli Neumann, not above 0.015 µg/mL; in [4], 0.125 µg/mL. Further, the MIC in experiment [5] was 0.125 µg/mL; in [6], 0.5 µg/mL; in the experiment with Proleus vulgaris 1017, 0.125 µg/mL.

Source of the values: patent publication US5059597A, “7-(4-oxa or 4-thia-2,7-diazabicyclo[3.3.0]oct-2-en-3-yl)-3-quinolone-and-naphthyrido ne-carboxylic acid derivatives as antibacterial agents and feed additives” (Bayer Aktiengesellschaft, priority 1988, dated 1991).
